Test results: PMC7156261 (Journal of medicinal chemistry, 2019)

Legend:
[1] = target: TEM-1 β-lactamase WT (native enzyme) (Escherichia coli, UniProt P62593); assay: DSF shift in Tm after incubation with moxalactam, WT; format: binding; conditions: 100-fold molar excess moxalactam
TEM-1 β-lactamase G238S = TEM-1 β-lactamase G238S (Escherichia coli, UniProt P62593, G236S); assay: DSF shift in Tm after incubation with moxalactam, G238S; format: binding; conditions: 100-fold molar excess moxalactam
TEM-1 β-lactamase M182T = TEM-1 β-lactamase M182T (Escherichia coli, UniProt P62593, M180T); assay: DSF shift in Tm after incubation with moxalactam, M182T; format: binding; conditions: 100-fold molar excess moxalactam
[2] = target: TEM-1 β-lactamase M182T/G238S (Escherichia coli, UniProt P62593, G236S/M180T); assay: DSF shift in Tm after incubation with moxalactam, M182T/G238S; format: binding; conditions: 100-fold molar excess moxalactam
Sor/CR colloids = format: binding; conditions: concentration of TEM-1 mutant at which 50% of fluorescent L2gd is displaced; 100 nM 5-MF-L2gd, 20 μM Sor/CR colloids
[3] = van't Hoff enthalpy of unfolding; format: physicochemical; conditions: Table S1

| Molecule | lowering of Tm [1] [°C] | destabilization (lowering of Tm) (TEM-1 β-lactamase G238S) [°C] | destabilization (lowering of Tm) (TEM-1 β-lactamase M182T) [°C] | effect on Tm [2] | EC50 (Sor/CR colloids) [µM] | van't Hoff enthalpy of unfolding [3] [kJ/mol] |
| --- | --- | --- | --- | --- | --- | --- |
| CO[C@@]1(NC(=O)[C@H](C(=O)O)c2ccc(O)cc2)C(=O)N2C(C(=O)O)=C(CSc3nnnn3C)CO[C@@H]21 [moxalactam] | 4.5 | 1.9 | 4.1 | no substantial effect |  |  |
| WT: wild-type TEM-1 β-lactamase (protein, UniProt P62593 24-286, looked up) Beta-lactamase TEM: HPETLVKVKDAEDQLGARVGYIELDLNSGKILESFRPEERFPMMSTFKVLLCGAVLSRVDAGQEQLGRRIHYSQNDLVEYSPVTEKHLTDGMTVRELCSAAITMSDNTAANLLLTTIGGPKELTAFLHNMGDHVTRLDRWEPELNEAIPNDERDTTMPAAMATTLRKLLTGELLTLASRQQLIDWMEADKVAGPLLRSALPAGWFIADKSGAGERGSRGIIAALGPDGKPSRIVVIYTTGSQATMDERNRQIAEIGASLIKHW |  |  |  |  | 577 ± 303 | 583.7 |
